What follows are compounds tested on primary human lung fibroblasts and primary rodent HSCs (assay: High content imaging assay (α-SMA staining, cell morphology) of fibroblast to myofibroblast transdifferentiation, confirmed by Western blot and RT-PCR). Conditions: Homo sapiens, Fibroblast; imaging and western based activity.
Outline: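 Primary human lung fibroblasts and primary rodent HSCs were serum-starved and then TGF-β-treated to drive transdifferentiation in 384-well format, with SB-431542 as positive control. Readouts were α-SMA immunofluorescence and cell morphology by high-content imaging, confirmed by Western blot and RT-PCR in 4-day, 4-point dose-response assays; EC50 values are graded.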
`CC[C@H](C)n1ncn(-c2ccc(N3CCN(c4ccc(OC[C@@H]5CO[C@@](Cn6cccn6)(c6ccc(C#N)cc6C)O5)cc4)CC3)cc2)c1=O` [Compound 172] was tested, and the EC50 was 0.5 to 5 µM. In the case of `CC[C@@H](C)n1ncn(-c2ccc(N3CCN(c4ccc(OC[C@H]5CO[C@](Cn6cccn6)(c6ccccc6)O5)cc4)CC3)cc2)c1=O` [Compound 171], the EC50 is reported as less than 0.5 µM. Compound `O=c1n(-c2ccc(N3CCN(c4ccc(OC[C@H]5CO[C@](Cn6nccn6)(c6ccc(Cl)cc6Cl)O5)cc4F)CC3)cc2)cnn1CC1CCCC1` [Compound 163] has an EC50 of less than 0.5 µM. `CCC(C)n1ncn(-c2ccc(N3CCN(c4ccc(OC[C@@H]5CO[C@@](Cc6ccnnc6)(c6ccccc6C)O5)cc4)CC3)cc2)c1=O` (stereo partly drawn) [Compound 136] showed an EC50 of 0.5 to 5 µM. Work on `CCC(C)n1ncn(-c2ccc(N3CCN(c4ccc(OC[C@@H]5CO[C@@](Cn6nccn6)(c6ccccc6)O5)c(F)c4F)CC3)cc2)c1=O` (stereo partly drawn) [Compound 63] yielded an EC50 of 5 to 30 µM. Compound `CC[C@@H](C)n1ncn(-c2ccc(N3CCN(c4ccc(OC[C@@H]5CO[C@@](Cn6cccn6)(c6ccccc6)O5)cc4)CC3)cc2)c1=O` [Compound 169] has an EC50 of less than 0.5 µM. `CCC(CC)n1ncn(-c2ccc(N3CCN(c4ccc(OC[C@@H]5CO[C@@](Cn6nccn6)(c6ccccc6)O5)cc4)CC3)cc2)c1=O` [Compound 161] showed an EC50 of less than 0.5 µM. In the case of `CCC(C)n1cnn(-c2ccc(N3CCN(c4ccc(OC[C@@H]5CO[C@@](Cc6ccccc6)(c6ccccc6)O5)cc4)CC3)cc2)c1=O` (stereo partly drawn) [Compound 150], the EC50 is reported as greater than 30 µM. Work on `CCC(C)n1ncn(-c2ccc(N3CCN(c4ccc(OC[C@@H]5CO[C@](Cc6ccnnc6)(c6cccc(C#N)c6)O5)cc4)CC3)cc2)c1=O` (stereo partly drawn) [Compound 110] yielded an EC50 of 5 to 30 µM. With `CCC(C)n1ncn(-c2ccc(N3CCN(c4ccc(OC[C@@H]5CO[C@@](Cn6cccn6)(c6ccc(C(F)(F)F)cc6)O5)cc4)CC3)cc2)c1=O` (stereo partly drawn) [Compound 93] the EC50 was less than 0.5 µM. `CCC(C)n1ncn(-c2ccc(N3CCN(c4ccc(OC[C@H]5CO[C@](Cn6nccn6)(c6ccccc6)O5)cc4)CC3)cc2)c1=O` (stereo partly drawn) [Compound 181] was tested, and the EC50 was less than 0.5 µM. Work on `CCC(C)n1ncn(-c2ccc(N3CCN(c4ccc(OC[C@@H]5CO[C@@](Cn6nccn6)(c6cc(Cl)ccc6Br)O5)cc4)CC3)cc2)c1=O` (stereo partly drawn) [Compound 35] yielded an EC50 of 0.5 to 5 µM. Compound `CCC(C)n1ncn(-c2ccc(N3CCN(c4ccc(OC[C@@H]5CO[C@@](Cn6nccn6)(c6ccc(Cl)cc6Cl)O5)nc4)CC3)cc2)c1=O` (stereo partly drawn) [Compound 54] has an EC50 of 0.5 to 5 µM. In the case of `CCC(C)n1ncn(-c2ccc(N3CCN(c4ccc(OC[C@@H]5CO[C@@](Cn6nccn6)(c6ccc(Cl)cc6Cl)O5)c(C#N)c4)CC3)cc2)c1=O` (stereo partly drawn) [Compound 57], the EC50 is reported as less than 0.5 µM. Work on `CCC(C)n1ncn(-c2ccc(-c3ccc(OC[C@@H]4CO[C@@](Cn5nccn5)(c5ccc(Cl)cc5Cl)O4)cc3)cc2)c1=O` (stereo partly drawn) [Compound 8] yielded an EC50 greater than 30 µM. Work on `CC[C@H](C)n1ncn(-c2ccc(N3CCN(c4ccc(OC[C@H]5CO[C@@](Cn6nccn6)(c6ccccc6)O5)cc4)CC3)cc2)c1=O` [Compound 185] yielded an EC50 of less than 0.5 µM. Compound `CCC(C)n1ncn(-c2ccc(N3CCN(c4ccc(OC[C@@H]5CO[C@@](Cn6nccn6)(c6ccccc6)O5)cc4C(F)(F)F)CC3)cc2)c1=O` (stereo partly drawn) [Compound 60] has an EC50 of 5 to 30 µM. With `CCC(CC)n1ncn(-c2ccc(N3CCN(c4ccc(OC[C@@H]5CO[C@@](Cn6nccn6)(c6ccc(Cl)cc6Cl)O5)cc4)CC3)cc2)c1=O` [Compound 13] the EC50 was 0.5 to 5 µM. In the case of `CCC(CC)n1ncn(-c2ccc(N3CCN(c4ccc(OC[C@H]5CO[C@](Cn6cccn6)(c6ccccc6)O5)cc4)CC3)cc2)c1=O` [Compound 167], the EC50 is reported as less than 0.5 µM. `CCC(C)n1ncn(-c2ccc(N3CCN(c4ccc(OC[C@@H]5CO[C@](CN6CCOCC6)(c6ccc(Cl)cc6Cl)O5)cc4)CC3)cc2)c1=O` (stereo partly drawn) [Compound 45] showed an EC50 greater than 30 µM. Work on `CCC(C)n1ncn(-c2ccc(N3CCN(c4ccc(OC[C@@H]5CO[C@@](Cn6nccn6)(c6ccccc6)O5)c(C#N)c4)CC3)cc2)c1=O` (stereo partly drawn) [Compound 65] yielded an EC50 of less than 0.5 µM. For `CCC(C)n1ncn(-c2ccc(N3CCN(c4ccc(OC[C@@H]5CO[C@@](Cn6ccc(=O)cc6)(c6ccc(Cl)cc6Cl)O5)cc4)CC3)cc2)c1=O` (stereo partly drawn) [Compound 41], the EC50 was less than 0.5 µM. `CCC(C)n1ncn(-c2ccc(N3CCN(c4ccc(OC[C@@H]5CO[C@@](Cn6cccn6)(c6cccc(C#N)c6)O5)cc4)CC3)cc2)c1=O` (stereo partly drawn) [Compound 88] was tested, and the EC50 was 0.5 to 5 µM. For `CCC(C)n1ncn(-c2ccc(N3CCN(c4ccc(OC[C@@H]5CO[C@@](Cn6nccn6)(c6ccccc6)O5)cc4)C(C)C3)cc2)c1=O` (stereo partly drawn) [Compound 72], the EC50 was 5 to 30 µM. `CC(CCN)n1ncn(-c2ccc(N3CCN(c4ccc(OC[C@@H]5CO[C@@](Cn6nccn6)(c6ccccc6)O5)cc4)CC3)cc2)c1=O` (stereo partly drawn) [Compound 17] showed an EC50 of 5 to 30 µM. Work on `O=c1n(-c2ccc(N3CCN(c4ccc(OC[C@H]5CO[C@](Cn6nccn6)(c6ccccc6)C5)cc4F)CC3)cc2)cnn1CC1CCCC1` [Compound 145] yielded an EC50 of 5 to 30 µM. Work on `CC[C@@H](C)n1ncn(-c2ccc(N3CCN(c4ccc(OC[C@@H]5CO[C@](Cn6nccn6)(c6ccccc6)O5)cc4)CC3)cc2)c1=O` [Compound 189] yielded an EC50 of 5 to 30 µM. Compound `CCC(C)n1ncn(-c2ccc(N3CCN(c4ccc(OC[C@@H]5CO[C@@](Cn6cccn6)(c6ccc(S(N)(=O)=O)cc6)O5)cc4)CC3)cc2)c1=O` (stereo partly drawn) [Compound 99] has an EC50 of 5 to 30 µM. `CCC(C)n1ncn(-c2ccc(N3CCN(c4ccc(OC[C@@H]5CO[C@@](Cn6cccn6)(c6ccc(OC(F)(F)F)cc6)O5)cc4)CC3)cc2)c1=O` (stereo partly drawn) [Compound 94] gave an EC50 of less than 0.5 µM. Work on `CCC(C)n1ncn(-c2ccc(N3CCN(c4ccc(OC[C@@H]5CO[C@@](Cn6cccn6)(c6cccc(C(F)(F)F)c6)O5)cc4)CC3)cc2)c1=O` (stereo partly drawn) [Compound 92] yielded an EC50 of less than 0.5 µM. With `CCC(C)n1ncn(-c2ccc(N3CCN(c4ccc(OC[C@@H]5CO[C@@](Cc6ccnnc6)(c6cccc(C)c6)O5)cc4)CC3)cc2)c1=O` (stereo partly drawn) [Compound 137] the EC50 was less than 0.5 µM. `CCC(C)n1ncn(-c2ccc(N3CCN(c4ccc(OC[C@@H]5CO[C@](Cc6ccnnc6)(c6cccc(OC)c6)O5)cc4)CC3)cc2)c1=O` (stereo partly drawn) [Compound 108] was tested, and the EC50 was 0.5 to 5 µM. Work on `CCC(C)n1ncn(-c2ccc(N3CCN(c4ccc(OC[C@@H]5CO[C@@](CC)(c6ccc(Cl)cc6Cl)O5)cc4)CC3)cc2)c1=O` (stereo partly drawn) [Compound 40] yielded an EC50 of 0.5 to 5 µM. `CCC(C)n1ncn(-c2ccc(N3CCN(c4ccc(OC[C@@H]5CO[C@@](Cc6ccnnc6)(c6ccc(Cl)c(Cl)c6)O5)cc4)CC3)cc2)c1=O` (stereo partly drawn) [Compound 126] was tested, and the EC50 was less than 0.5 µM. Compound `CCC(C)n1ncn(-c2ccc(N3CCN(c4ccc(OC[C@@H]5CO[C@@](Cn6nccn6)(c6ccccc6)O5)c(S(C)(=O)=O)c4)CC3)cc2)c1=O` (stereo partly drawn) [Compound 64] has an EC50 of 0.5 to 5 µM. In the case of `N#Cc1cc(OC[C@@H]2CO[C@@](Cn3nccn3)(c3ccccc3)O2)ccc1N1CCN(c2ccc(-n3cnn(CC4CCCC4)c3=O)cc2)CC1` [Compound 156], the EC50 is reported as 0.5 to 5 µM. Work on `CC(C)N1CCN(c2ccc(N3CCN(c4ccc(OC[C@H]5OC[C@](Cn6nccn6)(c6ccc(F)cc6F)O5)cc4)CC3)cc2)C1=O` (racemic) [Compound 203, cis (±)-1-(4-(4-(4-((4-((2H-1,2,3-triazol-2-yl)methyl)-4-(2,4-difluorophenyl)-1,3-dioxolan-2-yl)methoxy)phenyl)piperazin-1-yl)phenyl)-3-isopropylimidazolidin-2-one] yielded an EC50 greater than 30 µM. With `CCC(C)n1ncn(-c2ccc(N3CCN(c4ccc(OC[C@@H]5CO[C@@](Cn6cccn6)(c6ccc(C)cc6)O5)cc4)CC3)cc2)c1=O` (stereo partly drawn) [Compound 97] the EC50 was 5 to 30 µM. Compound `CCC(C)n1ncn(-c2cccc(N3CCN(c4ccc(OC[C@@H]5CO[C@@](Cn6nccn6)(c6ccc(Cl)cc6Cl)O5)cc4)CC3)c2)c1=O` (stereo partly drawn) [Compound 77] has an EC50 greater than 30 µM.

From US10336735B2, “Small molecule inhibitors of fibrosis” (THE CALIFORNIA INSTITUTE FOR BIOMEDICAL RESEARCH, priority 2014, dated 2019)
